≈ marks a conversion by molar mass, not a printed value.
Legend:
[1] = Metabolic stability in human liver microsomes; conditions: for T1/2: 0.5 mg/ml microsomal protein, n = 2
Procedure: Then, this incubation plate containing mixed solution and NADPH regeneration system was agitated on a plate shaker at 100 rpm and pre-incubated at 37°C for 5 min. Subsequently, 300 μL of precooled quenching solution was added to each well of another deep-well plate (quench plate), which was cooled on ice. The solution in the incubation plate was transferred into the well of the quench plate as the samples in 0 min before it was mixed with another 20 µL of NADPH regeneration solution in the wells.
The incubation plate was incubated at 37°C for 0, 10, 30, and 90 min. At each time point, 100 μL of the supernatant in the incubation plate was removed from each well, quenched immediately, transferred to the wells of the ice-cold quench plate, and vortexed for 5 min. Additionally, an equal volume of pre-warmed fresh regeneration solution was added to the incubation plate for compensation after every withdrawal. […] Each test was operated in duplicate. The determination conditions of LC-MS/MS are shown in Support Materials (Supplementary Table S4).
The in vitro T1/2 was determined by converting the analyte/IS peak area ratios to percentage of drug remaining using the initial peak (t = 0 min) area ratio values as 100%.

in vitro = conditions: PAMPA
Procedure: Verapamil and digoxin solutions, used as reference, prepared in the same manner as the test drugs. Tolbutamide dissolved with acetonitrile (200 ng/ml) was used as IS.
The resultant supernatants were determined by LC-MS/MS. The specific assay conditions are shown in Support Materials (Supplementary Table S2).

[2] = Kinetic solubility test in PBS; assay type: physicochemical; conditions: phosphate-buffer saline (PBS), aqueous buffer, kinetic from dmso stock; PBS (100 mM, pH 7.4)
Procedure: Internal standard (IS) solutions (propranolol and tolbutamide) were dissolved by acetonitrile (50 ng/ml propranolol + 200 ng/ml tolbutamide).
The sample solutions were analyzed using LC-MS/MS. All the samples (test samples and references) for detection were prepared in duplicate. The conditions for LC-MS/MS are shown in Support Materials (Supplementary Table S1).

[3] = tested on: PE-constricted aortic rings; assay: Vasorelaxant effects on isolated PE-constricted aortic rings; design: species or system SD rats; conditions: 10^–6 M PE, n = 6
Procedure: SD rats were anesthetized by exposure to ether, and the thoracic aorta was removed and immersed in Krebs-Henseleit (K-H) buffer ([Lee et al., 2013]) at 4°C. The connective tissues and fats around the aorta were carefully removed under the microscopes, and the blood was flushed. The aorta ring was cut into four sections approximately 3 mm long and suspended in organ chambers containing K-H buffer. The endothelium was also removed by gently rubbing the lumen of the vessel with a cotton swab. The aortic rings were placed in a 5 ml organ chambers of DMT multiwire myograph system (620M, Danish Myo Technology, Denmark) and were filled with K-H buffer aerated with 95% O2 and 5% CO2 at 37°C. The aortic rings were mounted on hooks connected to a tension transducer and a displacement device.
The initial vessel tension was slowly adjusted to 15 mN and maintained balanced for 60 min. The buffer was renewed once every 15 min. After equilibration, the vessel viability was pre-constricted by exposing the aortic rings to 60 mM KCl for 10 min ([Ding et al., 2019]). Then, the K-H buffer was continuously renewed to elute and restore the initial tension of the vascular ring to assay the vascular activity. The pre-treated operation was repeated two times, where the constriction amplitude after each KCl stimulation to reach the previous constriction amplitude was taken as the criterion, before the experiment continued. Subsequently, 10^–6 M PE was added to contract the blood vessel. After the constriction was stable, different concentrations of Ach (10^−9–10^–5 M) were used to dilate the vessels. Then, the vasorelaxation degree could be calculated with different Ach concentrations, as the following equation: Vasorelaxation degree (%)=Maxium constriction tension induced by PE−Minium diastolic tension induced by Ach/Maxium constriction tension induced by PE−Resting tension×100% (10) When the vasorelaxation degree corresponding to Ach (10^–5 M) is greater than 80%, the vascular endothelium is considered intact and functional. The endothelium is considered to be removed with a vasorelaxation degree of less than 20% ([Lee et al., 2013]). Endothelium-intact and endothelium-denuded aortic rings from the same aorta were tested.
After equilibration, the endothelium-intact and the endothelium-denuded aortic rings were pre-constricted with 10^–6 M PE in the K-H buffer system.
After equilibration, the endothelium-intact aortic rings were pre-constricted with 10^–6 M PE in the K-H buffer system. […] Then, the corresponding vasoconstrictive responses were examined and recorded.
In the vasorelaxant effects investigations, all the data are presented as mean ± SEM. Statistical analysis was performed using two-way ANOVA followed by Fisher’s least significant difference (LSD) test. Values at p < 0.05 were considered statistically significant.

Compound `COc1ccc2c(c1)[C@]13CCCC[C@@H]1[C@H](C2)N(C)CC3` [Dextromethorphan, dextromethorphan, reference compound] has a T1/2 ([1]; HLM with NADPH) of 63.8 min and a microsomal CLint ([1]; human, microsomes) of 21.7 µL/min/mg.
For `C[C@H]1O[C@@H](O[C@H]2[C@@H](O)C[C@H](O[C@H]3[C@@H](O)C[C@H](O[C@H]4CC[C@@]5(C)[C@H](CC[C@@H]6[C@@H]5C[C@@H](O)[C@]5(C)[C@@H](C7=CC(=O)OC7)CC[C@]65O)C4)O[C@@H]3C)O[C@@H]2C)C[C@H](O)[C@@H]1O` [Digoxin, digoxin, reference compound], the Papp at 18000 s (in vitro) was 0.589 ×10⁻⁶ cm/s.
`COc1ccc2[nH]c([S+]([O-])Cc3ncc(C)c(OC)c3C)nc2c1` (stereo not drawn) [Omeprazole, omeprazole, reference compound] showed a T1/2 ([1]; RLM with NADPH) of 15.6 min.
`CC(=O)N1CCN(c2ccc(OCC3COC(Cn4ccnc4)(c4ccc(Cl)cc4Cl)O3)cc2)CC1` (stereo not drawn) [ketoconazole, reference compound] gave a solubility kinetic [2] of 38.9 ± 1.54 µg/mL (≈ 73.2 µM).
With `COC(=O)C1=C(C)NC(C)=C(C(=O)OCCN(C)Cc2ccccc2)C1c1cccc([N+](=O)[O-])c1` (stereo not drawn) [nicardipine, reference compound] the solubility kinetic [2] was 9.94 ± 0.05 µg/mL (≈ 20.7 µM).
With Pinoresinol [PINL] the “vasorelaxant effect on PE-constricted aortic rings” value ([3]; increasing concentration 25–200 μM) was “concentration-dependent vasorelaxation”, the “vasorelaxation degree, endothelium-denuded versus endothelium-intact group” value ([3]; PINL difference at 50–100 μM) was “significantly lower” and the “vasorelaxant response compared between groups” value ([3]; endothelium-intact rings, PINL vs PDG at 50 μM, combination vs single at 25, 50 and 100 μM) was “significantly better than in the PDG group”.
